Data reported in US20240239883A1, “METHODS OF TREATING HOMOLOGOUS RECOMBINATION DEFICIENT CANCER” (ASTRAZENECA AB, priority 2020, published 2024).
Values joined by “and” are separate entries in the source; they are usually repeats but may differ in a detail not shown here. Equal entries are not always repeated.

How the values were obtained:
[1] = in vivo
Description: The study design was put into practice as the PAOLA-1/ENGOT-ov25 trial (NCT02477644), which was a randomised, double-blind, international phase III trial that enrolled patients with newly diagnosed, FIGO stage III-IV, high-grade serous or endometrioid ovarian cancer, fallopian tube or primary peritoneal cancer.
Patients were randomized in a 2:1 ratio to the treatments as specified below: • 1. Olaparib tablets orally 300 mg twice daily (bd) • 2. Placebo tablets orally 300 mg bd
The “overall study duration” phase was defined as from the first dose of olaparib or placebo until the last dose of olaparib or placebo+30 days (to account for the 30 day follow-up period).
Common Terminology Criteria for Adverse Events (CTCAE) (version 4.03) defines Grade 1 hypertension as having systolic BP 120-139 mmHg or diastolic BP 80-89 mm Hg; Grade 2 as having systolic BP 140-159 mmHg or diastolic BP 90-99 mm Hg, or recurrent or persistent (≥24 hrs) symptomatic increase by >20 mm Hg (diastolic) or to >140/90 mmHg; Grade 3 as having systolic BP ≥160 mmHg or diastolic BP ≥100 mmHg; Grade 4 hypertension as having life-threatening consequences, e.g., requiring urgent intervention; and Grade 5 hypertension as death.
An adverse event considered “serious” if, in the view of either the investigator or sponsor, it results in any of the following outcomes: death, a life-threatening adverse event, inpatient hospitalization or prolongation of existing hospitalization, or a persistent or significant incapacity or substantial disruption of the ability to conduct normal life functions.
Common Terminology Criteria for Adverse Events (CTCAE) (version 4.03) defines Grade 1 proteinuria as urine dipstick 1+ or <1.0 grams of protein per 24 hours; Grade 2 as urine dipstick 2+ or 1.0-3.4 grams of protein per 24 hours; Grade 3 as urine dipstick 4+ or ≥3.5 grams of protein per 24 hours.

[2] = cited from earlier work
[3] = tested on: patients with newly diagnosed, FIGO stage III-IV, high-grade serous or endometrioid ovarian cancer, fallopian tube or primary peritoneal cancer; test: PAOLA-1/ENGOT-ov25 phase III trial, first line maintenance: progression-free survival and other efficacy variables; type: in vivo, human
Description: Olaparib tablets orally 300 mg twice daily (bd) • 2. Placebo tablets orally 300 mg bd
Patients included in the study were female patients with newly diagnosed advanced (FIGO (International Federation of Gynaecology and Obstetrics) Stage IIIB, IIIC or IV) ovarian cancer, primary peritoneal cancer and/or fallopian tube cancer that was histologically confirmed as: (a) high-grade serous, or (b) high-grade endometrioid, or (c) other epithelial non mucinous ovarian cancer in a patient with gBRCA1 or 2 deleterious mutation.
Additionally, patents had completed first line platinum-taxane chemotherapy prior to randomization. Specifically, the platinum-taxane based regimen consisted of a minimum of 6 and a maximum of 9 treatment cycles; however, if platinum-based therapy was discontinued early as a result of non-haematological toxicity specifically related to the platinum regimen, (i.e., neurotoxicity, hypersensitivity, etc.), patients must have received a minimum of 4 cycles of the platinum regimen. Intravenous, intraperitoneal, or neoadjuvant platinum based chemotherapy was also allowed; for weekly therapy, 3 weeks was considered to be 1 cycle.
Prior to randomization, patients had no evidence of disease (NED) or had been in clinical complete response (CR) or in partial response (PR) following first line treatment. There should have been no clinical evidence of disease progression (physical exam, imaging, or cancer antigen-125 (CA-125)) throughout the first line treatment and prior to study randomization.
Finally, patients were randomized at least 3 weeks and no more than 9 weeks after their last dose of chemotherapy (last dose is the day of the last infusion) and all major toxicities from the previous chemotherapy were resolved.
Tumor samples from the patients were tested post-randomization (but prior to database lock) using the Myriad myChoice® HRD Plus test in order to investigate efficacy in pre-defined biomarker subgroups. The Myriad myChoice® HRD Plus test is delivered from a single central laboratory in Salt Lake City, Utah; it detects and classifies the following biomarkers simultaneously in tumor tissue:
Myriad HRD status is based on the Myriad HRD score and tBRCAm status. A positive Myriad HRD status is determined either by presence of a tBRCA1/2 mutation or by an HRD score at or above a pre-specified cut-off in the absence of a BRCA1/2 mutation. The Myriad HRD cut-off of 42 detects 95% of BRCAm tumors and has been extensively investigated as a biomarker of PARP inhibitor benefit in ovarian cancer. The cut-off of 42 has now been FDA-approved for another PARP inhibitor for the treatment of relapsed ovarian cancer (Myriad myChoice® HRD test offered under the name myChoice® CDx). Reducing the cut-off to 33, enables detection of 99% of BRCAm tumors and retrospective analyses from 2 clinical studies raised the possibility that a 33 cut-off may provide greater precision in determining patients who may benefit from PARP inhibitor treatment.
The data cut-off (DCO) for the analysis of progression-free survival (PFS) PFS is time from randomization to first progression or death according to modified Response Evaluation Criteria in Solid Tumours (RECIST version 1.1). PFS took place when 474 progression events had occurred (58.8% maturity), approximately 45 months after the first patient was randomized. At this DCO, all efficacy, QoL and safety variables were analyzed, as appropriate, based on the amount of data available at that time.
PFS (based on investigator assessment) was the primary variable for the study and was analyzed based on the primary data cut-off using the investigator assessment population.

[4] = overall population, KM estimate
[5] = overall population, KM estimate, listed as placebo-plus-bevacizumab
[6] = overall population, KM estimate, listed as placebo/bevacizumab

bevacizumab: recombinant humanized monoclonal IgG1 antibody, vascular endothelial growth factor inhibitor
incidence of CTCAE Grade ≥3 hypertension [1]: about 30% | overall incidence of proteinuria (all grades) ([2]; Study BO17705): 20% | patients in whom proteinuria did not resolve ([2]; after median follow-up of 11.2 months): 40% | proteinuria required discontinuation of bevacizumab ([2]; of the patients who developed proteinuria): 30%

O=C(c1cc(Cc2n[nH]c(=O)c3ccccc23)ccc1F)N1CCN(C(=O)C2CC2)CC1 [olaparib, 4-[(3-{[4-(cyclopropane-carbonyl)piperazine-1-yl]carbonyl}-4-fluorophenyl)methyl]-2H-phthalazin-1-one]
progression free survival greater than for subjects receiving bevacizumab alone ([3]; overall subject population, olaparib in addition to bevacizumab): at least 4 months

Placebo/bevacizumab: Comparator arm: placebo tablets plus bevacizumab 15 mg/kg every 3 weeks (bevacizumab alone, without olaparib)
Hypertension (serious adverse events) [1]: 35 (13.1) Number (%) of patients | Hypertension CTCAE all Grades [1]: 160 (59.9) Number (%) of patients | Proteinuria CTCAE Grade 3 or higher [1]: 1 (0.4) Number (%) of patients | Proteinuria CTCAE all Grades [1]: 40 (15.0) Number (%) of patients | Vascular disorders (serious adverse events) [1]: 35 (13.1) Number (%) of patients | adverse drug reactions of proteinuria [1]: 15.4% | patients who reported adverse events (AEs) [1]: 95.9% | patients not classified as having had a second progression at the time of analysis (PFS2) ([3]; PFS2 data 39.1% mature): 55.8% | median time until the first subsequent treatment ([3]; all patients): 18.5 months | rate of freedom from second disease progression and death at 18 months ([3]; interim analysis of second progression-free survival, data maturity 39%, Kaplan-Meier estimate): 80% | patients for whom progression occurred on treatment ([3]; overall population): 71.6% | patients not classified as having progressed at the time of analysis ([3]; overall population): 27.9% | n (%) of events (PFS) ([3]; overall population (FAS), investigator assessment, modified RECIST 1.1 or death, primary data cut-off): 194 (72.1) n (%) | Progression free at 6 months [3, 4]: 85.3% | Progression free at 12 months [3, 4]: 65.6% | Progression free at 18 months [3, 4]: 45.8% | Progression free at 24 months [3, 4]: 27.7% | Progression free at 12 months [3, 5]: 66% | Progression free at 18 months [3, 5]: 46% | Progression free at 24 months [3, 5]: 28% | Progression free at 12 months [3, 6]: 65.6% | Progression free at 24 months [3, 6]: 27.7% | Median PFS (95% CI) ([3]; overall population, KM techniques): 16.6 months and 16.6 (15.4, 18.6) months | proportion of patients with PFS events ([3]; overall population, at data cut-off (474 events, 58.8% maturity)): 72.1% | median progression-free survival ([3]; patients with HRD-negative tumors (277 patients)): 16.2 months | median progression-free survival ([3]; patients with HRD-negative tumors or whose tumor HRD status was unknown (419 patients)): 16.0 months | median progression-free survival ([3]; patients with HRD-positive tumors that did not have BRCA mutations (FIG. 3D)): 16.6 months | median progression-free survival ([3]; patients with a tumor BRCA mutation (FIG. 3A)): 21.7 months | median progression-free survival ([3]; patients with tumors positive for HRD (score ≥42 on myChoice HRD Plus or tumor BRCA mutation) (FIG. 3C)): 17.7 months | median progression-free survival ([3]; patients without a tumor BRCA mutation (FIG. 3B)): 16.0 months
